Laboratory results from patent US11752077B2, “Oily moisturizer and topical skin composition containing same” (The Nisshin OilliO Group, Ltd., priority 2017, dated 2023).

Tests used:
[1] = tested on: stratum corneum moisture content of the skin (forearm); assay: Evaluation test of moisture retention effect upon single application (esterified products, oils, glycerol applied neat); type: in vivo, human
Experimental: In the present invention, the moisture retention effect of the esterified product, namely the improvement effect on the moisture retention function of the skin, was evaluated based on the change in the stratum corneum moisture content of the skin before and after application of the esterified product. Measurement of the stratum corneum moisture content was performed using a stratum corneum moisture content measuring device (device name: SKICON-200), manufactured by IBS Co., Ltd. This stratum corneum moisture content measuring device is a device that is widely used for measuring the moisturestate of the stratum corneum, and is a device that measures the electrical conductivity (μS) of the stratum corneum. The larger the skin moisture content, the higher the electrical conductivity of the stratum corneum becomes. Accordingly, the electrical conductivity (μS) measured using the stratum corneum moisture content measuring device was deemed to indicate the stratum corneum moisture content. The skin moisture retention effect of each test sample was evaluated by applying the test sample directly to washed skin, and then measuring the change in the skin stratum corneum moisture content after wiping the test sample off the skin using a cotton swab soaked in hexane. The skin stratum corneum moisture content measurement test was conducted on a plurality of panelists in the season from autumn to spring when the skin is prone to dryness. Further, in order to remove the effects of room temperature and humidity on the measurement results, the tests were performed in a room in which the room temperature had been adjusted to 18 to 22° C. and the humidity had been adjusted to 40 to 55% RH. Specifically, first, the forearm of the person was washed with soap, and the person was then held for 30 minutes in a room in which the room temperature and the humidity had been controlled within the above ranges to acclimatize the skin of the forearm to the measurement environment, thus completing preparations for the initial conditions for measurement. […] Subsequently, 40 μL of the test sample being evaluated was applied uniformly to the square measurement region of the forearm. Sixty minutes after the application, a cotton swab that had been immersed in hexane was used to wipe off the test sample, and 30 minutes after the test sample had been wiped off, the stratum corneum moisture content of the wiped region of the skin (the stratum corneum moisture content upon test completion) was measured. Further, when evaluating the moisture retention effect of the test sample, in order to consider and subtract the change in the state of the skin during the measurement period, the stratum corneum moisture content of a portion of the skin to which the sample had not been applied was also measured prior to test commencement and upon test completion, and the change in the stratum corneum moisture content of this uncoated portion was calculated. A moisture retention effect value (μS) was determined from the measured values for the skin stratum corneum moisture content based on the formulas below. The moisture retention effect value (μS) for each test sample was calculated as the average value for the moisture retention effect values (μS) across five panelists. […] Based on the moisture retention effect value (μS) for each test sample, the moisture retention effect of each test sample was evaluated using the criteria in Table 43. […] Using various commercially available oils and glycerol, the <Evaluation of moisture retention upon single application> described above was conducted to ascertain the moisture retention effect. […] The glycerol of Comparative Example 21 is a typical aqueous moisturizer, and is widely used as a moisturizer. […] With the exception of changing the removal solvent from hexane to water, the evaluation conditions were the same as those described above in the <Evaluation of moisture retention upon single application>.

[2] = tested on: stratum corneum moisture content of the skin (forearm); assay: as above; type: in vivo, human; details: 60 minutes after application, glycerol still applied to the skin surface, prior to removal using water
[3] = esterified product applied neat, 40 μL on 3 cm x 3 cm forearm region, wiped off with hexane after 60 minutes, measured 30 minutes later, average of five panelists
[4] = single application of commercially available oil or glycerol to skin, measured after removal (hexane swab; water swab for glycerol)
[5] = single application of commercially available oil or glycerol, class from moisture retention effect value
[6] = esterified product applied neat, 40 μL on forearm, wiped off with hexane after 60 minutes, measured 30 minutes later, five panelists

| Molecule | Moisture retention effect value [1, 3] | Moisture retention effect value [1, 4] | Moisture retention evaluation result [1, 5] | Moisture retention effect value ([1]; removal after 60 minutes with cotton swab immersed in water rather than hexane, measured 30 minutes later) | increase in the electrical conductivity that corresponds with the moisture retention effect value [2] | Moisture retention evaluation result [1, 6] |
| --- | --- | --- | --- | --- | --- | --- |
| CC(C)CCCCCCCCCCCCCCC(=O)OCC(C)C [Comparative Example 9, isobutyl isostearate] | 47 μS | – | – | – | – | – |
| CCCCC(CC)C(=O)OCC(COC(=O)C(CC)CCCC)OC(=O)C(CC)CCCC (centres unmarked) [Comparative Example 14, glyceryl tri(2-ethylhexanoate)] | – | 32 μS | e1 (less than 40) | – | – | – |
| OCC(O)CO [Comparative Example 21, glycerol] | – | 8 μS | e1 (less than 40) | 8 μS | 477 μS | – |
| caprate ester of ditrimethylolpropane [Example 3] | 70 μS | – | – | – | – | a1 (70 or greater) |
| caprylate ester of ditrimethylolpropane [Example 2] | 87 μS | – | – | – | – | a1 (70 or greater) |
